Measured values reported in patent publication US11246912B2, “Methods for treating and diagnosing metastatic liver cancer” (HADASIT MEDICAL RESEARCH SERVICES AND DEVELOPMENT LTD., priority 2017, dated 2022).
No end group written: not given here.

Experiments:
[1] = test system: MC-38 colorectal liver metastases; assay: MC-38 colorectal liver metastases model (intra-splenic cell injection) with adropin injection; type: in vivo, mouse
Method: Metastases model—In order to obtain metastases in the liver, a well-documented model was employed using the cancer cell lines derived from C57B1/6 mice—MC-38 or EL-4 cells. The cancer cells were injected intra-splenic into MDR2-Knockout (KO) and C57B1/6 mice at two and five months of age, and after 5 minutes the spleen was removed to prevent the development of a primary tumor in the spleen. Fourteen days later, the mice were euthanized, and their livers were removed in a similar manner to that described above.
Adropin injection—The adropin peptide (corresponding to amino acids at positions 34-76) was purchased from ChinaPeptides Co., Ltd. with a purity of >95%. The peptide was injected to mice according to two protocols. For the first protocol, termed ‘short adropin treatment’, adropin was injected at 450 nmole/kg in saline (80 μl injected), i.p., twice daily, for the five days surrounding the MC-38 CRC cell injection. For the second protocol, termed ‘prolonged adropin treatment’, 450 nmole/kg of adropin was injected i.p. (100 μl injected) once every three days from the morning of MC-38 cell injection throughout the experiment until the mice were sacrificed fourteen days later (a total of five injections).
Formalin-fixed paraffin-embedded tissue slides were stained with hematoxylin-eosin (H&E) staining and analyzed under a microscope using Cellsens Entry software (Olympus, Japan). The number and size of metastases larger than 4,000 μm^2 were recorded. The number of metastases was normalized relatively to the size of the liver sample analyzed.
A synthetic peptide of adropin (34-76 aa, purity: >95%) was then used to validate the findings regarding adropin's role in protecting the liver from metastases. The peptide, or saline as control, was injected (450 nmol/kg/i.p.) to mice during the week of cancer cell injection (2 days before, day of tumor cell injection and the following two days). A significant decrease of over 2.5-fold in the metastases size was observed, in the adropin-injected mice (FIG. 4B).
A further protocol was employed where adropin was injected every 3 days throughout the entire experiment period (14 days), starting from the morning of the cancer cell injection.
The mice were injected every two days with adropin (0.01 or 0.05 mg/i.p. injection) or saline starting from the morning of the MC-38 cell injection until being sacrificed two weeks later.

[2] = test system: MC-38 (colorectal cancer cell line); assay: XTT cell-proliferation test, MC-38 cells; type: cell-based, murine
Method: (§1) All cell lines were maintained in DMEM medium supplemented with 10% FCS, 1% Penicillin/Streptomycin and 1% L-Glutamine in 10 cm^2 plates in 5% humidified CO2 at 37° C. Twice a week cells were passaged. Detaching was done for MC-38, CT26 and normal cells by incubation with 1 ml trypsin for 2-3 min and then seeded (usually 1:10) in 10 ml DMEM supplemented medium which stopped the enzymatic process of trypsin. EL4 cells are grown in suspension, thus not requiring this stage. For the experiments, after the trypsin detachment, 1 ml of cells was transferred into 13 ml medium and then the cells were centrifuged (1,400 rpm, 10 min, room temperature (RT)) and resuspended in 1 ml of fresh medium (for in vitro experiments) or sterile PBS×l (for mouse injections in vivo). Cells were counted in a hemocytometer under a light microscope (magnification×10) immediately after the addition of Trypan blue solution (1:1 ratio). Non-stained cells were considered viable. For in-vivo mouse injections, the cells were diluted in sterile PBS xl to a final concentration of 5×10^4 for MC-38 cells or 5×10^5 for EL-4 cells per 100 μl. For XTT in vitro experiments, the cells were seeded in a 96-well plate (100 μl per well) in the morning and in the afternoon (once the cells adhered) the medium was changed according to the treatment (DMEM, Adropin 25 ng/ml, Adropin 50 ng/ml or Adropin 100 ng/ml). On the following day, the XTT reaction solution was added to the wells according to the cell proliferation kit (XTT based; Biological Industries, Israel) and the plate was read 2, 3 and 4 hours following, using a Magellan for Infinite F50 (Tecan, Switzerland) microplate reader at 450 nm.
To test adropin's direct effects on MC-38 cells, XTT cell-proliferation tests were performed with adropin added to the medium at different concentrations (25-100 ng/ml).

[3] = test system: CT26 colorectal cancer cell line; assay: XTT metabolic assay, CT26 cells; type: cell-based; conditions: CT26 seeded 5×10^3 cells/well
Method: FIGS. 9A-9D are vertical bar graphs showing the inhibitory effect of adropin on colorectal cancer cells.
as §1, with “For in-vivo mouse injections, the cells were diluted in sterile PBS xl to a final concentration of 5×10^4 for MC-38 cells or 5×10^5 for EL-4 cells per 100 μl. For XTT in vitro experiments, the cells were seeded in a 96-well plate (100 μl per well) in the morning and in the afternoon (once the cells adhered) the medium was changed according to the treatment (DMEM, Adropin 25 ng/ml, Adropin 50 ng/ml or Adropin 100 ng/ml).” left out

MC38 cells = assay: Direct cell count, MC38 cells; type: cell-based, murine; conditions: all tested seeding concentrations, up to 5×10^4 cells/well; compared with XTT
Method: as §1, with “For in-vivo mouse injections, the cells were diluted in sterile PBS xl to a final concentration of 5×10^4 for MC-38 cells or 5×10^5 for EL-4 cells per 100 μl. For XTT in vitro experiments, the cells were seeded in a 96-well plate (100 μl per well) in the morning and in the afternoon (once the cells adhered) the medium was changed according to the treatment (DMEM, Adropin 25 ng/ml, Adropin 50 ng/ml or Adropin 100 ng/ml).” left out, “nm. […]” for “nm.”

CT26 cells = assay: Direct cell count, CT26 cells; type: cell-based
[4] = test system: normal fibroblasts (HF cells); assay: XTT assay on normal fibroblasts; type: cell-based; conditions: 1×10^4 HF cells/well
Method: (§2) FIGS. 10A-10C are vertical bar graphs showing the specificity of adropin inhibition on proliferating cancer cells. No detectable effect of adropin treatment was observed (using XTT assay) on normal (A) fibroblasts (1×10^4 HF cells/well), (B) kidney cells (5×10^4 cells/well), and (C) hepatocytes (5×10^4 HepRG cells/well) in-vitro.
(§3) All cell lines were maintained in DMEM medium supplemented with 10% FCS, 1% Penicillin/Streptomycin and 1% L-Glutamine in 10 cm^2 plates in 5% humidified CO2 at 37° C. Twice a week cells were passaged. Detaching was done for MC-38, CT26 and normal cells by incubation with 1 ml trypsin for 2-3 min and then seeded (usually 1:10) in 10 ml DMEM supplemented medium which stopped the enzymatic process of trypsin. EL4 cells are grown in suspension, thus not requiring this stage. […] Cells were counted in a hemocytometer under a light microscope (magnification×10) immediately after the addition of Trypan blue solution (1:1 ratio). […] On the following day, the XTT reaction solution was added to the wells according to the cell proliferation kit (XTT based; Biological Industries, Israel) and the plate was read 2, 3 and 4 hours following, using a Magellan for Infinite F50 (Tecan, Switzerland) microplate reader at 450 nm. […]

normal kidney cells = assay: XTT assay on normal kidney cells; type: cell-based; conditions: kidney cells 5×10^4 cells/well
Method: as §2, §3

[5] = test system: hepatocytes (HepRG cells); assay: XTT assay on normal hepatocytes; type: cell-based; conditions: 5×10^4 HepRG cells/well
Method: as §2, §3

[6] = Adropin stability under storage conditions by LC-MS; type: physicochemical
Text: The inventors then examined the stability of adropin in vitro. For that, the inventors had set up a liquid chromatography mass spectrometry (LC-MS) assay and used it to examine the stability of adropin under different storage conditions (see Table 1). […] Contrary, approximately 50% degradation were observed when the dissolved peptide was stored at a room temperature for one month.

[7] = Adropin stability during incubation with mouse serum (LC-MS); type: in vitro ADME; conditions: 24 hours incubation with mouse serum; read-out: adropin level remaining
Method: FIG. 11 is a graph showing adropin dynamic stability during incubation with mouse serum as measured with liquid chromatography mass spectrometry (LC-MS).
The next step was to assess the stability of adropin during incubation with human or mouse serum.

hepatic adropin RNA = assay: Hepatic adropin RNA levels after adropin injection (qRT-PCR); type: in vivo, mouse
Method: FIG. 14 is a vertical bar graph showing the dose effects of a single adropin administration (i.p.) at the indicated doses (0 (naïve), 0.01 mg, 0.05 mg and 0.001 mg) on hepatic adropin RNA levels (measured by qRT-PCR). Each group comprised 4 mice.
FIG. 15 is a vertical bar graph showing the efficacy of different adropin routes of administration on hepatic adropin RNA in naïve mice (measured by qRT-PCR). Adropin was injected at a dose 0.01 mg. Naïve, non-injected; IP, intraperitoneal injection; SC, subcutaneous injection; IV, intravenous injection.
(§4) C57BL/6 mice were given a single injection of adropin at different concentrations and sacrificed at varied times afterward. […] The lower concentration induced higher effect.
The inventors then pursued optimization of adropin administration. With this respect, different doses of adropin were administered to mice and hepatic adropin RNA levels were quantified (FIG. 14). […] Reduction in the dose of the administered adropin led to a reduction in the administered adropin effect.
Further, the inventors examined whether the administration route of the adropin affects the hepatic adropin mRNA levels (FIG. 15).

hepatic adropin protein = assay: Hepatic adropin protein levels after single adropin injection; type: in vivo, mouse; conditions: C57BL/6 mice, single i.p. injection, different doses; lasting for two days
Method: FIGS. 12A-12B are vertical bar graphs showing the effect of single adropin polypeptide injection on endogenous hepatic adropin RNA (A) and (B) protein levels at the indicated doses and timing following i.p. injection (n represents number of mice per group).
Adropin levels were determined using the ELISA Kit (Cloud-Clone Corp., Texas, USA) for liver or serum mice samples according to the manufacturer's protocol. The results were analyzed using Magellan for Infinite F50 (Tecan, Switzerland).
as §4

[8] = adropin 450 nmol/kg i.p., short treatment, vs saline
[9] = adropin 0.01 or 0.05 mg/i.p. injection every two days for two weeks, C57BL/6 mice
[10] = prolonged adropin treatment, 450 nmol/kg i.p. every 3 days for 14 days

effect of adropin treatment on normal cells (XTT) [4]: No detectable effects | effect of adropin treatment on normal cells (XTT) (normal kidney cells): No detectable effects | effect of adropin treatment on normal cells (XTT) [5]: No detectable effects | Concentration obtained by LC-MS ([6]; 4° C. for 1 month): 84 ng/mL | Concentration obtained by LC-MS ([6]; Freeze/Thaw cycle × 3 (−20° C. to RT once a week)): 92 ng/mL | Concentration obtained by LC-MS ([6]; Room temperature (RT) for 1 month): 55 ng/mL | degradation of dissolved peptide ([6]; room temperature for one month): approximately 50% | Concentration obtained by LC-MS ([6]; −20° C. for 1 month): 95 ng/mL | stability dissolved in saline ([6]; −20° C. or −80° C., up to one month): highly stable | Concentration obtained by LC-MS ([6]; −80° C. and then 4° C. for 1 week): 99 ng/mL | Concentration obtained by LC-MS ([6]; −80° C. and then RT for 1 week): 94 ng/mL | Concentration obtained by LC-MS ([6]; −80° C. and then −20° C. for 1 week): 100 ng/mL | Concentration obtained by LC-MS ([6]; −80° C. for 1 month): 95 ng/mL | remaining at 24 h [7]: 55%
Sequence: CHSRSADVDSLSESSPNSSPGPCPEKAPPPQKPSHEGSYLLQP (cysteines drawn unpaired) [adropin]
BrdU levels in the hepatic parenchyma [1, 8]: no differences | number of BrdU stained cells in the tumors [1, 8]: decrease in the number of BrdU stained cells | number of hepatic metastases [1, 9]: significantly improved effects | size of hepatic metastases [1, 9]: significantly improved effects | number of liver metastases [1, 10]: reduced upon adropin injections (marginally significant) | size of liver metastases [1, 10]: reduced upon adropin injections (marginally significant) | decrease in the metastases size ([1]; short adropin treatment, 450 nmol/kg i.p., 2 days before, day of and two days after MC-38 cell injection, vs saline): over 2.5 fold | inhibition of proliferation (XTT metabolic assay, FIG. 9A) ([2]; MC38 seeded 5×10^3 cells/well): significant inhibition | reduction in cell number (XTT) ([2]; adropin 100 ng/ml, seeded 1×10^3 cells/well): significant reduction in cell number | reduction in cell number (XTT) ([2]; adropin 100 ng/ml, seeded 5×10^3 cells/well): significant reduction in cell number | proliferation levels (XTT) ([2]; adropin 25-100 ng/ml in medium): decrease in the proliferation levels of the colorectal cancer cells in a dose dependent manner | reduction in cell number (XTT) ([2]; adropin 25 or 100 ng/ml, seeded 5×10^4 cells/well): No significant reduction | inhibition of proliferation (XTT metabolic assay, FIG. 9C) [3]: significant inhibition | inhibitory effect on the number of cells (direct cell count) (MC38 cells): even higher inhibitory effect | inhibition by direct cell counts (CT26 cells): same trends of inhibition | hepatic adropin RNA levels (hepatic adropin RNA; C57BL/6 mice, single i.p. injection, different doses, lasting for two days): large increase | hepatic adropin mRNA levels (hepatic adropin RNA; intraperitoneal injection, 0.01 mg, naïve mice): greatest increase | hepatic adropin mRNA levels (hepatic adropin RNA; intravenous injection, 0.01 mg, naïve mice): substantial increase | hepatic adropin mRNA levels (hepatic adropin RNA; single i.p. dose of 0.001 mg): did not induce such an effect | hepatic adropin mRNA levels (hepatic adropin RNA; single i.p. dose of 0.005 mg): some increase | hepatic adropin mRNA levels (hepatic adropin RNA; single i.p. dose of 0.01 mg): substantially increase | hepatic adropin mRNA levels (hepatic adropin RNA; subcutaneous injection, 0.01 mg, naïve mice): did not seem to increase | hepatic adropin protein levels (hepatic adropin protein): large increase
